Measurements published in patent US20170081338A1, “SUBSTITUTED HETEROARYL COMPOUNDS AND METHODS OF USE” (Sunshine Lake Pharma Co., Ltd., priority 2015, published 2017).

Experiments:
[1] = Compound stability in rat liver microsomes; type: in vitro ADME; settings: pH 7.4; for half-life at 5 μM: rat liver microsomes 0.5 mg protein/mL, compound 5 μM, NADPH, 37° C., read-out: Rat T1/2; for CLint scaled at 5 μM: rat liver microsomes, in vivo CLint extrapolated
Procedure, shortened: (§1)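 Compounds (5 μM, 0.05% DMSO) were incubated at 37° C with liver microsomes (0.5 mg protein/mL) and NADPH (1.0 mM) in 100 mM potassium phosphate, pH 7.4. Samples taken at 0–60 min were quenched with cold acetonitrile and analysed by LC/MS/MS. Remaining compound was expressed as % of the zero-time value, and CLint was extrapolated.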

JAK1 (h) = molecular target: T1, JAK1 (h) (Homo sapiens, UniProt P23458); assay: JAK1 (h) kinase assay; type: biochemical
T1 construct: purchased Millipore UK Ltd (contract assay service)
T1 sequence (P23458 whole entry): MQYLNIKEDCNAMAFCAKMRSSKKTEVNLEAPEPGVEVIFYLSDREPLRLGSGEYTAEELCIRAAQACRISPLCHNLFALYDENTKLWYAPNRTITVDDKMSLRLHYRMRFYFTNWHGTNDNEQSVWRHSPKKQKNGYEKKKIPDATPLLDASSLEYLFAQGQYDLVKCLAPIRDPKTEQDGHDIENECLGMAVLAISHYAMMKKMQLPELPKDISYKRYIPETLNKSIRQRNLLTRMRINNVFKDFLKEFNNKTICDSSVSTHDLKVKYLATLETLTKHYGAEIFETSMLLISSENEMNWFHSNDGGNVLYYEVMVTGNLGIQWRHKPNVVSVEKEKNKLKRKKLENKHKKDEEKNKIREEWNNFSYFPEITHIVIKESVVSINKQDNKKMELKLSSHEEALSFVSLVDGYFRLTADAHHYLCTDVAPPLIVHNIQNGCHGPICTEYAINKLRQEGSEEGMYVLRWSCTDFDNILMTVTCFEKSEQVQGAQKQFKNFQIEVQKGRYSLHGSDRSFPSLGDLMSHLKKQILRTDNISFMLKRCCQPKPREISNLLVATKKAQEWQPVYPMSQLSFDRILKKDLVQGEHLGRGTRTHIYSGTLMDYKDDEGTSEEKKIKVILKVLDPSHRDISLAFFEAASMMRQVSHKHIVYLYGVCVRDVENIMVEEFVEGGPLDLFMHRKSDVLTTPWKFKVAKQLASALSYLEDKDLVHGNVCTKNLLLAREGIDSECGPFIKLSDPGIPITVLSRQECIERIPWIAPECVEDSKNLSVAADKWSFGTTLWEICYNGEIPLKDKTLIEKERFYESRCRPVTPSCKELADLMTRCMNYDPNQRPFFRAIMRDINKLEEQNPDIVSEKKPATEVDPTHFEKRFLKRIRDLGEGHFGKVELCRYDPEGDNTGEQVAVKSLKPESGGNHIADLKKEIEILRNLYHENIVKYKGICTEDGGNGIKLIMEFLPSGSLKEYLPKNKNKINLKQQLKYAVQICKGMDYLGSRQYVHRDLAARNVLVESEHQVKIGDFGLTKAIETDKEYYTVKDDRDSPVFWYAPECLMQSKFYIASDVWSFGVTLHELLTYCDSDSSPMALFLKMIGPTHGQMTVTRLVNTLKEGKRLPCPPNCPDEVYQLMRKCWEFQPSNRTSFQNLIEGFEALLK
Method: Kinase assays can be performed by measurement of incorporation of γ-^33P ATP into immobilized myelin basic protein (MBP). High binding white 384 well plates (Greiner) are coated with MBP (Sigma #M-1891) by incubation of 60 μL/well of 20 μg/mL MBP in Tris-buffered saline (TBS; 50 mM Tris pH 8.0, 138 mM NaCl, 2.7 mM KCl) for 24 h at 4° C. Plates are washed 3× with 100 μL TBS. Kinase reactions are carried out in a total volume of 34 μL in kinase buffer (according to the need to make, for example, 5 mM Hepes pH 7.6, 15 mM NaCl, 0.01% bovine gamma globulin (Sigma #1-5506), 10 mM MgCl2, 1 mM DTT, 0.02% TritonX-100). Compound dilutions are performed in DMSO and added to assay wells to a final DMSO concentration of 1%. Each data point is measured in duplicate, and at least two duplicate assays are performed for each individual compound determination. Enzyme is added to final concentrations of 10 nM or 20 nM, for example. A mixture of unlabeled ATP and γ-^33P ATP is added to start the reaction (2×10^6 cpm of γ-^33P ATP per well (3000 Ci/mmole) and 10 μM unlabeled ATP, typically. The reactions are carried out for 1 h at room temperature with shaking. Plates are washed 7× with TBS, followed by the addition of 50 µL/well scintillation fluid (Wallac). Plates are read using a Wallac Trilux counter. This is only one format of such assays; various other formats are possible, as known to one skilled in the art.
The above assay procedure can be used to determine the IC50 for inhibition and/or the inhibition constant, Ki. The IC50 is defined as the concentration of compound required to reduce the enzyme activity by 50% under the condition of the assay. The IC50 value is estimated by preparing a 10 point curve using a 1/2 log dilution series (for example, a typical curve may be prepared using the following compound concentrations: 3 μM, 1 μM, 0.3 μM, 0.1 μM, 0.03 μM, 0.01 μM, 0.003 μM, 0.001 μM, 0.0003 μM and 0 μM).
JAK1 (h) is incubated with 20 mM Tris/HCl pH 7.5, 0.2 mM EDTA, 500 μM GEEPLYWSFPAKKK, 10 mM MgAcetate and [γ-^33P-ATP] (specific activity approx. 500 cpm/pmol, concentration as required). The reaction is initiated by the addition of the MgATP mix. After incubation for 40 minutes at room temperature, the reaction is stopped by the addition of 3% phosphoric acid solution. 10 μL of the reaction is then spotted onto a P30 filtermat and washed three times for 5 minutes in 75 mM phosphoric acid and once in methanol prior to drying and scintillation counting.
The kinase assays described herein were performed at Millipore UK Ltd, Dundee Technology Park, Dundee DD2 1SW, UK.

[2] = Compound stability in human liver microsomes; type: in vitro ADME; settings: pH 7.4; for half-life at 5 μM: human liver microsomes 0.5 mg protein/mL, compound 5 μM, NADPH, 37° C., read-out: Human T1/2; for CLint scaled at 5 μM: human liver microsomes, in vivo CLint extrapolated
Procedure, shortened: as §1

half-life at 5 μM [1] [min]	CLint scaled at 5 μM [1] [mL/min/kg]	IC50 (JAK1 (h)) [nM]	half-life at 5 μM [2] [min]	CLint scaled at 5 μM [2] [mL/min/kg]	Structure (SMILES)
40.9	60.7	94	33.6	51.7	Cn1cc(Nc2ncc(Cl)c(N[C@@H]3COC4C3OC[C@@H]4NS(=O)(=O)CC(C)(C)C#N)n2)cn1 (stereo partly drawn) [Ex. 26, N-((3S,6R)-6-((5-chloro-2-((1-methyl-1H-pyrazol-4-yl)amino)pyrimidin-4-yl)amino)hexahydrofuro[3,2-b]furan-3-yl)-2-cyano-2-methylpropane-1-sulfonamide]
69.8	35.6	27	83.4	20.8	Cn1cc(Nc2ncc(Cl)c(N[C@@H]3COC4C3OC[C@@H]4NS(=O)(=O)CC3CC3)n2)cn1 (stereo partly drawn) [Ex. 25, N-((3S,6R)-6-((5-chloro-2-((1-methyl-1H-pyrazol-4-yl)amino)pyrimidin-4-yl)amino)hexahydrofuro[3,2-b]furan-3-yl)-1-cyclopropylmethanesulfonamide]
67.3	36.9	43	37	47	CC(C)CS(=O)(=O)N[C@H]1COC2C1OC[C@H]2Nc1nc(Nc2cnn(C)c2)ncc1Cl (stereo partly drawn) [Ex. 2, N-((3S,6R)-6-((5-chloro-2-((1-methyl-1H-pyrazol-4-yl)amino)pyrimidin-4-yl)amino)hexahydrofuro[3,2-b]furan-3-yl)-2-methylpropane-1-sulfonamide]
56.5	44	7	190	9.16	Cn1cc(Nc2ncc(Cl)c(N[C@@H]3COC4C3OC[C@@H]4NS(=O)(=O)CC(F)(F)F)n2)cn1 (stereo partly drawn) [Ex. 27, N-((3S,6R)-6-((5-chloro-2-((1-methyl-1H-pyrazol-4-yl)amino)pyrimidin-4-yl)amino)hexahydrofuro[3,2-b]furan-3-yl)-2,2,2-trifluoroethanesulfonamide]
